Test results: patent US6635293B2, “Finely dispersed carotenoid suspensions for use in foods and a process for their preparation” (Kemin Foods, L.C., priority 2001, dated 2003)

Assays:
[1] = Optical clarity of model beverage system containing SFAE/carotenoid composition (% transmittance at 800 nm); type: physicochemical; details: liquid conc. product 20% L-1695 ester
Protocol: (§1) Optical clarity was examined using SFAE/carotenoid liquid compositions in potable water and a model beverage system. The SFAE/carotenoid dry composition are used in a model beverage system. Liquid SFAE/carotenoid compositions were made by slowly mixing the appropriate weight percent of SFAE into the water until dissolved (Tables 2-5). At this point, the carotenoid was mixed into the SFAE/water mixture until evenly dispersed. The dry SFAE/lutein composition was prepared by removing the water from the liquid SFAE/lutein composition using a horizontal wiped film evaporator until the total moisture was less than 1%. These SFAE/carotenoid compositions were added either to potable water or to the model beverage system. The optical clarity was measured using a Hewlett Packard UV-Visible Spectrophotometer Model 8453. The instrument was blanked with water for the water trial and control beverage for the beverage trials. A quartz cuvette having a 1 cm path length is rinsed three times with the sample and then the transmittance at 800 nm is read from the spectrophotometer.

[2] = Optical clarity of water containing SFAE/carotenoid composition (% transmittance at 800 nm); type: physicochemical; details: liquid conc. product 20% L-1695 ester
Protocol: as §1

[3] = tested on: age-related macular degeneration; details: consumption of lutein and zeaxanthin together; cited from earlier work
[4] = Stability against ringing and settling of SFAE/carotenoid compositions in model beverage system; type: physicochemical; details: 3 mg carotenoid/8 fl. oz. serving, 20% SFAE/1% lycopene
Text: The objective of this experiment was to determine the stability of a sucrose fatty acid ester/carotenoid suspension in aqueous compositions. For the purposes of this discussion, stability will be defined as the resistance to produce a deposit of the carotenoid around the perimeter of the container in the region of the surface of the beverage (ringing). There are several factors that may affect the stability against ringing in aqueous compositions. It is possible that an optimal level of SFAE is required to keep the carotenoid in the suspension. The hydrophilic/lipophilic balance (HLB) of the SFAE may affect the interaction of the carotenoids with the aqueous composition. Additionally, the inclusion level of the SFAE/carotenoid suspension may determine the stability against ringing. […] These factors have been examined to determine whether there are optimal levels of SFAE and carotenoids that contribute to the stability against ringing. Stability against ringing was examined using SFAE/carotenoid liquid compositions in potable water and a model beverage system. The SFAE/carotenoid dry composition was used in a model beverage system. Liquid SFAE/carotenoid compositions were made by slowly mixing the appropriate weight percent of SFAE into the water until dissolved (Table 6). At this point the carotenoid was mixed into the SFAE/water mixture until evenly dispersed. […]

[5] = 0.5 mg carotenoid/8 oz serving, 5% carotenoid
[6] = 3.0 mg carotenoid/8 oz serving, 5% carotenoid
[7] = 1.5 mg carotenoid/8 oz serving, 5% carotenoid
[8] = 0.5 mg carotenoid/8 oz serving, 1% carotenoid
[9] = 3.0 mg carotenoid/8 oz serving, 1% carotenoid

CC1=C(/C=C/C(C)=C/C=C/C(C)=C/C=C/C=C(C)/C=C/C=C(C)/C=C/C2=C(C)C[C@@H](O)CC2(C)C)C(C)(C)C[C@H](O)C1 [zeaxanthin, Zeaxanthin]
Optical Clarity [1, 5]: 99.102 % transmittance at 800 nm | Optical Clarity [1, 6]: 87.707 % transmittance at 800 nm | Optical Clarity [2, 5]: 98.213 % transmittance at 800 nm | Optical Clarity [2, 7]: 95.692 % transmittance at 800 nm | Optical Clarity [2, 6]: 94.110 % transmittance at 800 nm | reduction in age-related macular degeneration [3]: 57%

CC(C)=CCC/C(C)=C/C=C/C(C)=C/C=C/C(C)=C/C=C/C=C(C)/C=C/C=C(C)/C=C/C=C(\C)CCC=C(C)C [lycopene, Lycopene]
settling (in words) [4]: considerable amount of settling | Optical Clarity [1, 8]: 94.934 % transmittance at 800 nm | Optical Clarity [1, 9]: 50.180 % transmittance at 800 nm | Optical Clarity [2, 8]: 97.989 % transmittance at 800 nm | Optical Clarity ([2]; 1.5 mg carotenoid/8 oz serving, 1% carotenoid): 88.387 % transmittance at 800 nm | Optical Clarity [2, 9]: 72.401 % transmittance at 800 nm

CC1=C(/C=C/C(C)=C/C=C/C(C)=C/C=C/C=C(C)/C=C/C=C(C)/C=C/C2=C(C)CCCC2(C)C)C(C)(C)CCC1 [β-carotene, β-Carotene]
Optical Clarity [1, 5]: 99.314 % transmittance at 800 nm | Optical Clarity [1, 6]: 89.643 % transmittance at 800 nm | Optical Clarity [2, 5]: 96.759 % transmittance at 800 nm | Optical Clarity [2, 7]: 94.275 % transmittance at 800 nm | Optical Clarity [2, 6]: 87.407 % transmittance at 800 nm

CC1=C[C@H](O)CC(C)(C)[C@H]1/C=C/C(C)=C/C=C/C(C)=C/C=C/C=C(C)/C=C/C=C(C)/C=C/C1=C(C)C[C@@H](O)CC1(C)C [lutein, Lutein]
Optical Clarity [1, 5]: 97.609 % transmittance at 800 nm | Optical Clarity [1, 6]: 83.017 % transmittance at 800 nm | Optical Clarity [2, 5]: 104.73 % transmittance at 800 nm | Optical Clarity [2, 7]: 101.01 % transmittance at 800 nm | Optical Clarity [2, 6]: 93.735 % transmittance at 800 nm | reduction in age-related macular degeneration [3]: 57%
